Laboratory results: PubChem BioAssay AID1963849 (Molecular Pharmacology Branch, DTP, NCI, 2024)

System: 299254-011-R-J1-PDC complex spheroid viability
Test: Anticancer human tumor 299254-011-R-J1-PDC patient-derived melanoma cell line growth inhibition [POLQ]
Details: for IC50: curve of first compound; for viability, T/C: stronger effect = lower value
In short: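 Patient-derived tumour cells were co-cultured with HUVEC and mesenchymal stem cells as multicellular spheroids at 37 °C. They were treated with POLQ inhibitors (novobiocin, ART-558, RP6685) alone or combined with other agents. Top concentrations were at or near clinical Cmax (otherwise 10 microM; SN-38 at 1 microM), decreasing in half-log steps.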

[1] = second compound 0.0316 µM, first compound 0.0316 µM
[2] = second compound 0.0316 µM, first compound 0.1 µM
[3] = second compound 0.0316 µM, first compound 0.316 µM
[4] = second compound 0.0316 µM, first compound 1 µM
[5] = second compound 0.0316 µM, first compound 3.16 µM
[6] = second compound 0.0316 µM, first compound 10 µM
[7] = second compound 0.1 µM, first compound 0.0316 µM
[8] = second compound 0.1 µM, first compound 0.1 µM
[9] = second compound 0.1 µM, first compound 0.316 µM
[10] = second compound 0.1 µM, first compound 1 µM
[11] = second compound 0.1 µM, first compound 3.16 µM
[12] = second compound 0.1 µM, first compound 10 µM
[13] = second compound 0.316 µM, first compound 0.0316 µM
[14] = second compound 0.316 µM, first compound 0.1 µM
[15] = second compound 0.316 µM, first compound 0.316 µM
[16] = second compound 0.316 µM, first compound 1 µM
[17] = second compound 0.316 µM, first compound 3.16 µM
[18] = second compound 0.316 µM, first compound 10 µM
[19] = second compound 1 µM, first compound 0.0316 µM
[20] = second compound 1 µM, first compound 0.1 µM
[21] = second compound 1 µM, first compound 0.316 µM
[22] = second compound 1 µM, first compound 1 µM
[23] = second compound 1 µM, first compound 3.16 µM
[24] = second compound 1 µM, first compound 10 µM
[25] = second compound 3.16 µM, first compound 0.0316 µM
[26] = second compound 3.16 µM, first compound 0.1 µM
[27] = second compound 3.16 µM, first compound 0.316 µM
[28] = second compound 3.16 µM, first compound 1 µM
[29] = second compound 3.16 µM, first compound 3.16 µM
[30] = second compound 3.16 µM, first compound 10 µM
[31] = second compound 10 µM, first compound 0.0316 µM
[32] = second compound 10 µM, first compound 0.1 µM
[33] = second compound 10 µM, first compound 0.316 µM
[34] = second compound 10 µM, first compound 1 µM
[35] = second compound 10 µM, first compound 3.16 µM
[36] = second compound 10 µM, first compound 10 µM
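Also: spheroids exposed to drugs for one week before measurement.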
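For viability, T/C in this document: percent viability relative to DMSO vehicle control taken as 100%.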

In the case of `CCc1cc2c(N3CCc4c(cc(Cn5ccnc5)cc4-c4cn(C)nc4C(F)(F)F)C3=O)cc(C)nc2c(OC)n1` + COC1C(OC(N)=O)C(O)C(Oc2ccc3c(O)c(NC(=O)c4ccc(O)c(CC=C(C)C)c4)c(=O)oc3c2C)OC1(C)C, the IC50 (second compound 0.0316 µM) is reported as over 10 µM, the IC50 (second compound 0.1 µM) is reported as over 10 µM and the IC50 (second compound 0.316 µM) is reported as over 10 µM. For the same compound, the IC50 (second compound 1 µM) was over 10 µM, the IC50 (second compound 3.16 µM) was over 10 µM and the IC50 (second compound 10 µM) was over 10 µM. It also gave a viability, T/C [1] of 96.8%, a viability, T/C [2] of 96.1% and a viability, T/C [3] of 109%. For the same compound, the viability, T/C [4] was 81.1%, the viability, T/C [5] was 91.5% and the viability, T/C [6] was 69.5%. It also gave a viability, T/C [7] of 99.8%, a viability, T/C [8] of 95.3% and a viability, T/C [9] of 104%. For the same compound, the viability, T/C [10] was 108%, the viability, T/C [11] was 107% and the viability, T/C [12] was 63.9%. The viability, T/C [13] was 107%, the viability, T/C [14] was 121% and the viability, T/C [15] was 103%. The viability, T/C [16] was 106%, the viability, T/C [17] was 88.4% and the viability, T/C [18] was 66.8%. It also gave a viability, T/C [19] of 116%, a viability, T/C [20] of 110% and a viability, T/C [21] of 114%. It also gave a viability, T/C [22] of 99.6%, a viability, T/C [23] of 94.5% and a viability, T/C [24] of 67.4%. For the same compound, the viability, T/C [25] was 106%, the viability, T/C [26] was 107% and the viability, T/C [27] was 100%. The viability, T/C [28] was 106%, the viability, T/C [29] was 99.2% and the viability, T/C [30] was 70.6%. The viability, T/C [31] was 96.3%, the viability, T/C [32] was 105% and the viability, T/C [33] was 110%. It also gave a viability, T/C [34] of 106%, a viability, T/C [35] of 93.5% and a viability, T/C [36] of 73.9%.

For `CCc1cc2c(N3CCc4c(cc(Cn5ccnc5)cc4-c4cn(C)nc4C(F)(F)F)C3=O)ccnc2c(OC)n1` + COC1C(OC(N)=O)C(O)C(Oc2ccc3c(O)c(NC(=O)c4ccc(O)c(CC=C(C)C)c4)c(=O)oc3c2C)OC1(C)C, the IC50 (second compound 0.0316 µM) was over 10 µM, the IC50 (second compound 0.1 µM) was over 10 µM and the IC50 (second compound 0.316 µM) was over 10 µM. The IC50 (second compound 1 µM) was over 10 µM, the IC50 (second compound 3.16 µM) was over 10 µM and the IC50 (second compound 10 µM) was over 10 µM. The viability, T/C [1] was 115%, the viability, T/C [2] was 104% and the viability, T/C [3] was 111%. For the same compound, the viability, T/C [4] was 116%, the viability, T/C [5] was 107% and the viability, T/C [6] was 82.2%. It also gave a viability, T/C [7] of 110%, a viability, T/C [8] of 105% and a viability, T/C [9] of 101%. The viability, T/C [10] was 85.2%, the viability, T/C [11] was 92.2% and the viability, T/C [12] was 71.3%. It also gave a viability, T/C [13] of 93%, a viability, T/C [14] of 121% and a viability, T/C [15] of 101%. The viability, T/C [16] was 95.8%, the viability, T/C [17] was 101% and the viability, T/C [18] was 91.4%. It also gave a viability, T/C [19] of 107%, a viability, T/C [20] of 110% and a viability, T/C [21] of 106%. It also gave a viability, T/C [22] of 106%, a viability, T/C [23] of 113% and a viability, T/C [24] of 84.7%. For the same compound, the viability, T/C [25] was 99.3%, the viability, T/C [26] was 101% and the viability, T/C [27] was 116%. It also gave a viability, T/C [28] of 114%, a viability, T/C [29] of 92.9% and a viability, T/C [30] of 80%. The viability, T/C [31] was 120%, the viability, T/C [32] was 99.2% and the viability, T/C [33] was 111%. The viability, T/C [34] was 118%, the viability, T/C [35] was 97.5% and the viability, T/C [36] was 81.4%.
